# Test results reported in patent USRE38117E1, “Trioxane dimer compound having antiproliferative and antitumor activities” (Hauser, Inc., priority 1995, dated 2003).
# Columns and labels:
# Type in all cases: cell-based
# UO-31 = test: NCI 60 cell line screen (SRB), Renal Cancer; conditions: UO-31 (Renal Cancer)
# MDA-MB-435 = test: NCI 60 cell line screen (SRB), Breast Cancer; conditions: MDA-MB-435 (Breast Cancer)
# A549/ATCC = test: NCI 60 cell line screen (SRB), Non-Small Cell Lung Cancer
# SR = test: NCI 60 cell line screen (SRB), Leukemia
# SF-268 = test: NCI 60 cell line screen (SRB), CNS Cancer; conditions: SF-268 (CNS Cancer)
# MCF7/ADR-RES = test: NCI 60 cell line screen (SRB), Breast Cancer
# A498 = test: NCI 60 cell line screen (SRB), Renal Cancer
# MDA-MB231/ATCC = test: NCI 60 cell line screen (SRB), Breast Cancer
# NCI-H522 = test: NCI 60 cell line screen (SRB), Non-Small Cell Lung Cancer
# TK-10 = test: NCI 60 cell line screen (SRB), Renal Cancer; conditions: TK-10 (Renal Cancer)
# MCF7 = test: NCI 60 cell line screen (SRB), Breast Cancer
# MDA-N = test: NCI 60 cell line screen (SRB), Breast Cancer
# UACC-62 = test: NCI 60 cell line screen (SRB), Melanoma; conditions: UACC-62 (Melanoma)
# K-562 = test: NCI 60 cell line screen (SRB), Leukemia; conditions: K-562 (Leukemia)
# HCC-2998 = test: NCI 60 cell line screen (SRB), Colon Cancer; conditions: HCC-2998 (Colon Cancer)
# SK-MEL-5 = test: NCI 60 cell line screen (SRB), Melanoma; conditions: SK-MEL-5 (Melanoma)
# HCT-116 = test: NCI 60 cell line screen (SRB), Colon Cancer; conditions: HCT-116 (Colon Cancer)
# KM12 = test: NCI 60 cell line screen (SRB), Colon Cancer
# PC-3 = test: NCI 60 cell line screen (SRB), Prostate Cancer; conditions: PC-3 (Prostate Cancer)
# M14 = test: NCI 60 cell line screen (SRB), Melanoma
# LOX IMVI = test: NCI 60 cell line screen (SRB), Melanoma
# 786-0 = test: NCI 60 cell line screen (SRB), Renal Cancer; conditions: 786-0 (Renal Cancer)
# HCT-15 = test: NCI 60 cell line screen (SRB), Colon Cancer; conditions: HCT-15 (Colon Cancer)
# HOP-92 = test: NCI 60 cell line screen (SRB), Non-Small Cell Lung Cancer; conditions: HOP-92 (Non-Small Cell Lung Cancer)
# EKVX = test: as above
# OVCAR-4 = test: NCI 60 cell line screen (SRB), Ovarian Cancer; conditions: OVCAR-4 (Ovarian Cancer)
# CCRF-CEM = test: NCI 60 cell line screen (SRB), Leukemia
# HOP-62 = test: NCI 60 cell line screen (SRB), Non-Small Cell Lung Cancer; conditions: HOP-62 (Non-Small Cell Lung Cancer)
# SK-MEL-28 = test: NCI 60 cell line screen (SRB), Melanoma; conditions: SK-MEL-28 (Melanoma)
# CAKI-1 = test: NCI 60 cell line screen (SRB), Renal Cancer; conditions: CAKI-1 (Renal Cancer)
# OVCAR-3 = test: NCI 60 cell line screen (SRB), Ovarian Cancer; conditions: OVCAR-3 (Ovarian Cancer)
# T-47D = test: NCI 60 cell line screen (SRB), Breast Cancer; conditions: T-47D (Breast Cancer)
# RXF 393 = test: NCI 60 cell line screen (SRB), Renal Cancer; conditions: RXF 393 (Renal Cancer)
smiles,measurement,setting,value
"COC1OC2(C)CCC3CCCC(CCOC(=O)c4ccc(C(=O)OCCC5CCCC6CCC7(C)OOC56C(OC)O7)cc4)C31OO2 (stereo not shown) [Compound 11, Bis-ester Dimer]",Log10GI50,UO-31,−5.63 M
same,Log10LC50,UO-31,>−4.00 M
same,Log10TGI,UO-31,>−4.00 M
same,Log10GI50,MDA-MB-435,−5.69 M
same,Log10LC50,MDA-MB-435,>−4.00 M
same,Log10TGI,MDA-MB-435,−4.63 M
same,Log10GI50,A549/ATCC,−5.42 M
same,Log10LC50,A549/ATCC,>−4.00 M
same,Log10TGI,A549/ATCC,>−4.00 M
same,Log10GI50,SR,−6.38 M
same,Log10LC50,SR,>−4.00 M
same,Log10TGI,SR,−5.17 M
same,Log10GI50,SF-268,−5.14 M
same,Log10LC50,SF-268,>−4.00 M
same,Log10TGI,SF-268,>−4.00 M
same,Log10GI50,MCF7/ADR-RES,−5.11 M
same,Log10LC50,MCF7/ADR-RES,>−4.00 M
same,Log10TGI,MCF7/ADR-RES,>−4.00 M
same,Log10GI50,A498,>−4.00 M
same,Log10LC50,A498,>−4.00 M
same,Log10TGI,A498,>−4.00 M
same,Log10GI50,MDA-MB231/ATCC,−5.18 M
same,Log10LC50,MDA-MB231/ATCC,>−4.00 M
same,Log10TGI,MDA-MB231/ATCC,>−4.00 M
same,Log10GI50,NCI-H522,−5.66 M
same,Log10LC50,NCI-H522,>−4.00 M
same,Log10TGI,NCI-H522,−4.45 M
same,Log10GI50,TK-10,−5.06 M
same,Log10LC50,TK-10,>−4.00 M
same,Log10TGI,TK-10,>−4.00 M
same,Log10GI50,MCF7,−5.86 M
same,Log10LC50,MCF7,>−4.00 M
same,Log10TGI,MCF7,>−4.00 M
same,Log10GI50,MDA-N,−5.56 M
same,Log10LC50,MDA-N,>−4.00 M
same,Log10TGI,MDA-N,>−4.00 M
same,Log10GI50,UACC-62,−5.87 M
same,Log10LC50,UACC-62,>−4.00 M
same,Log10TGI,UACC-62,>−4.00 M
same,Log10GI50,K-562,−6.57 M
same,Log10LC50,K-562,>−4.00 M
same,Log10TGI,K-562,>−4.00 M
same,Log10GI50,HCC-2998,−4.56 M
same,Log10LC50,HCC-2998,>−4.00 M
same,Log10TGI,HCC-2998,>−4.00 M
same,Log10GI50,SK-MEL-5,−6.00 M
same,Log10LC50,SK-MEL-5,>−4.00 M
same,Log10TGI,SK-MEL-5,>−4.00 M
same,Log10GI50,HCT-116,−6.30 M
same,Log10LC50,HCT-116,>−4.00 M
same,Log10TGI,HCT-116,>−4.00 M
same,Log10GI50,KM12,−6.24 M
same,Log10LC50,KM12,>−4.00 M
same,Log10TGI,KM12,>−4.00 M
same,Log10GI50,PC-3,−6.51 M
same,Log10LC50,PC-3,>−4.00 M
same,Log10TGI,PC-3,>−4.00 M
same,Log10GI50,M14,−5.20 M
same,Log10LC50,M14,>−4.00 M
same,Log10TGI,M14,>−4.00 M
same,Log10GI50,LOX IMVI,−6.28 M
same,Log10LC50,LOX IMVI,>−4.00 M
same,Log10TGI,LOX IMVI,>−4.00 M
same,Log10GI50,786-0,−5.41 M
same,Log10LC50,786-0,>−4.00 M
same,Log10TGI,786-0,>−4.00 M
same,Log10GI50,HCT-15,−6.12 M
same,Log10LC50,HCT-15,>−4.00 M
same,Log10TGI,HCT-15,>−4.00 M
same,Log10GI50,HOP-92,−4.91 M
same,Log10LC50,HOP-92,>−4.00 M
same,Log10TGI,HOP-92,>−4.00 M
same,Log10GI50,EKVX,−5.20 M
same,Log10LC50,EKVX,>−4.00 M
same,Log10TGI,EKVX,>−4.00 M
same,Log10GI50,OVCAR-4,−5.26 M
same,Log10LC50,OVCAR-4,>−4.00 M
same,Log10TGI,OVCAR-4,>−4.00 M
same,Log10GI50,CCRF-CEM,−6.57 M
same,Log10LC50,CCRF-CEM,−4.05 M
same,Log10TGI,CCRF-CEM,−4.89 M
same,Log10GI50,HOP-62,−5.01 M
same,Log10LC50,HOP-62,>−4.00 M
same,Log10TGI,HOP-62,>−4.00 M
same,Log10GI50,SK-MEL-28,−4.31 M
same,Log10LC50,SK-MEL-28,>−4.00 M
same,Log10TGI,SK-MEL-28,>−4.00 M
same,Log10GI50,CAKI-1,−4.99 M
same,Log10LC50,CAKI-1,>−4.00 M
same,Log10TGI,CAKI-1,>−4.00 M
same,Log10GI50,OVCAR-3,−5.63 M
same,Log10LC50,OVCAR-3,>−4.00 M
same,Log10TGI,OVCAR-3,>−4.00 M
"C[C@@H]1CC[C@H]2[C@@H](C)C(=O)O[C@@H]3O[C@@]4(C)CC[C@@H]1[C@]32OO4 [QHS, 3,6,9-trimethyl-9,10b-epidioxyperhydropyrano[4,3,2-jk]benzoxepin-2-one, reference compound]",Log10GI50,UO-31,−4.06 M
same,Log10LC50,UO-31,>−4.00 M
same,Log10TGI,UO-31,−4.00 M
same,Log10GI50,A549/ATCC,−4.17 M
same,Log10LC50,A549/ATCC,>−4.00 M
same,Log10TGI,A549/ATCC,>−4.00 M
same,Log10GI50,SR,>−4.00 M
same,Log10LC50,SR,>−4.00 M
same,Log10TGI,SR,>−4.00 M
same,Log10GI50,A498,>−4.00 M
same,Log10LC50,A498,>−4.00 M
same,Log10TGI,A498,>−4.00 M
same,Log10GI50,MDA-MB231/ATCC,−4.20 M
same,Log10LC50,MDA-MB231/ATCC,>−4.00 M
same,Log10TGI,MDA-MB231/ATCC,−4.00 M
same,Log10GI50,TK-10,>−4.00 M
same,Log10LC50,TK-10,>−4.00 M
same,Log10TGI,TK-10,>−4.00 M
same,Log10GI50,MCF7,>−4.00 M
same,Log10LC50,MCF7,>−4.00 M
same,Log10TGI,MCF7,>−4.00 M
same,Log10GI50,MDA-N,>−4.00 M
same,Log10LC50,MDA-N,>−4.00 M
same,Log10TGI,MDA-N,>−4.00 M
same,Log10GI50,UACC-62,>−4.00 M
same,Log10LC50,UACC-62,>−4.00 M
same,Log10TGI,UACC-62,>−4.00 M
same,Log10GI50,K-562,−4.33 M
same,Log10LC50,K-562,>−4.00 M
same,Log10TGI,K-562,−4.00 M
same,Log10GI50,HCC-2998,>−4.00 M
same,Log10LC50,HCC-2998,>−4.00 M
same,Log10TGI,HCC-2998,>−4.00 M
same,Log10GI50,SK-MEL-5,−4.10 M
same,Log10LC50,SK-MEL-5,>−4.00 M
same,Log10TGI,SK-MEL-5,>−4.00 M
same,Log10LC50,T-47D,>−4.00 M
same,Log10TGI,T-47D,>−4.00 M
same,Log10GI50,HCT-116,−4.00 M
same,Log10LC50,HCT-116,>−4.00 M
same,Log10TGI,HCT-116,>−4.00 M
same,Log10GI50,KM12,>−4.00 M
same,Log10LC50,KM12,>−4.00 M
same,Log10TGI,KM12,>−4.00 M
same,Log10GI50,RXF 393,−4.08 M
same,Log10LC50,RXF 393,>−4.00 M
same,Log10TGI,RXF 393,>−4.00 M
same,Log10GI50,PC-3,−4.17 M
same,Log10LC50,PC-3,>−4.00 M
same,Log10TGI,PC-3,>−4.00 M
same,Log10LC50,M14,>−4.00 M
same,Log10TGI,M14,>−4.00 M
same,Log10GI50,786-0,>−4.00 M
same,Log10LC50,786-0,>−4.00 M
same,Log10TGI,786-0,>−4.00 M
same,Log10GI50,HCT-15,>−4.00 M
same,Log10LC50,HCT-15,>−4.00 M
same,Log10TGI,HCT-15,>−4.00 M
same,Log10GI50,HOP-92,>−4.00 M
same,Log10LC50,HOP-92,>−4.00 M
same,Log10TGI,HOP-92,>−4.00 M
same,Log10GI50,EKVX,>−4.00 M
same,Log10LC50,EKVX,>−4.00 M
same,Log10TGI,EKVX,>−4.00 M
same,Log10GI50,HOP-62,>−4.00 M
same,Log10LC50,HOP-62,>−4.00 M
same,Log10TGI,HOP-62,>−4.00 M
same,Log10GI50,SK-MEL-28,>−4.00 M
same,Log10LC50,SK-MEL-28,>−4.00 M
same,Log10TGI,SK-MEL-28,>−4.00 M
